We go through eleven compounds from patent US20250195536A1, “BICYCLOOCTANE KRAS INHIBITORS” (Incyte Corporation, priority 2023, published 2025).

As a reminder, the Papp A→B is how fast a substance crosses the layer from the apical side. Low values mean slow passage, high ones fast passage.

For data set [1], the target named is KRAS G12V (Homo sapiens, UniProt P01116, G12V). Briefly: GDP-GTP exchange assay (KRAS G12V).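 Further: one dagger IC50 up to 100 nM and two daggers above 100 nM up to 1 μM.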 Type of data set: biochemical. The following applies: bodipy-GDP/GppNHp exchange with SOS1; 3 h incubation after GppNHp-SOS1. The gist of the method: (§1)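 IC50 came from a four-parameter fit of fluorescence loss (485/520 nm) as SOS1 (150 nM) swapped bodipy-GDP for GppNHp (500 μM) on 2.5 nM KRAS, final concentrations. Compounds were pre-incubated 4 h at r.t. (pH 7.5 Hepes, 10 mM MgCl2); exchange ran 2 h (G12D) or 3 h (G12V).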
Chain of KRAS G12V (P01116 1-188 isoform P01116-2 G12V): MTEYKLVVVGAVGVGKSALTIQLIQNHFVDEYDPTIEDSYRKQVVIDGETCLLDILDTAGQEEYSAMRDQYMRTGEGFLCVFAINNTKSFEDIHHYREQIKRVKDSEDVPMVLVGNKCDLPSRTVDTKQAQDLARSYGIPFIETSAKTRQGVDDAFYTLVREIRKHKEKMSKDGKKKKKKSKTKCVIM

Data set [2] can be described thus: Caco2 assay (permeability, Papp A-B). Type of data set: in vitro ADME. The following applies: human, Caco-2, absorptive direction (A-B), 50 μM test compound, 4% BSA in receiver. The gist of the method:
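Absorptive (A-B) Papp: 50 μM test compound in HBSS added to apical side of 22-25-day Caco-2 monolayers (TEER 300 Ω·cm^2), receiver buffer containing 4% BSA. After 120 min at 37 °C, 5% CO2, both sides analysed by LCMS; Papp calculated from flux rate normalized to area and donor amount.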
In general terms: Passage across Caco-2 layers is used to estimate intestinal permeability.

For data set [3], the target named is KRAS G12D (Homo sapiens, UniProt P01116, G12D). Briefly: GDP-GTP exchange assay (KRAS G12D).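 Further: one dagger IC50 up to 100 nM and two daggers above 100 nM up to 1 μM.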 The data set is classed as biochemical. Conditions: bodipy-GDP/GppNHp exchange with SOS1; 4 h pre-incubation, 2 h reaction. The gist of the method:
as §1

Chain of KRAS G12D (P01116 1-188 isoform P01116-2 G12D): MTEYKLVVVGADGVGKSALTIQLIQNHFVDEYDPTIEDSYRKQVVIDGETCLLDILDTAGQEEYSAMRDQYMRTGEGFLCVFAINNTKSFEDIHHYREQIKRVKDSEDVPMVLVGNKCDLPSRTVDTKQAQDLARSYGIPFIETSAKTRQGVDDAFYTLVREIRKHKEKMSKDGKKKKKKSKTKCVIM

Consider `Cc1nc2c(F)c(-c3cccc(Cl)c3Cl)c(CCC#N)cc2c2c1cc([C@H]1[C@H]3C[C@H](CN(c4ccn(C(F)F)c(=O)c4)C3)N1C(=O)C1CC1)n2[C@H]1[C@H]2CN[C@@H]1C2` (atropisomer, axis not shown; (Ra)) [Example 56, 3-((Ra)-1-((1R,4R,5S)-2-azabicyclo[2.1.1]hexan-5-yl)-2-((1S,5R,7R)-6-(cyclopropanecarbonyl)-3-(1-(difluoromethyl)-2-oxo-1,2-dihydropyridin-4-yl)-3,6-diazabicyclo[3.2.1]octan-7-yl)-7-(2,3-dichlorophenyl)-6-fluoro-4-methyl-1H-pyrrolo[3,2-c]quinolin-8-yl)propanenitrile], for which the “G12V_exchange (KRAS_G12V exchange assay IC50)” value (shortened to “G12V_exchange”) in data set [1] is listed as “†”. The same compound displayed a Papp A→B at 120 min, 50 μM in data set [2] of no more than 0.5 ×10⁻⁶ cm/s. Further, in data set [3], the “G12D_exchange (KRAS_G12D exchange assay IC50)” value (shortened to “G12D_exchange”) is “†”.

As to `Cc1nc2c(F)c(-c3cccc(Cl)c3Cl)c(CCC#N)cc2c2c1cc([C@H]1[C@H]3C[C@H](CN(c4ccn(CC(C)C)c(=O)c4)C3)N1C(=O)C1CC1)n2[C@H]1[C@H]2CN[C@@H]1C2` (atropisomer, axis not shown; (Ra)) [Example 58, 3-((Ra)-1-((1R,4R,5S)-2-azabicyclo[2.1.1]hexan-5-yl)-2-((1S,5R,7R)-6-(cyclopropanecarbonyl)-3-(1-isobutyl-2-oxo-1,2-dihydropyridin-4-yl)-3,6-diazabicyclo[3.2.1]octan-7-yl)-7-(2,3-dichlorophenyl)-6-fluoro-4-methyl-1H-pyrrolo[3,2-c]quinolin-8-yl)propanenitrile], in data set [1], the “G12V_exchange” value is given as “†”. In data set [2], this compound had a Papp A→B at 120 min, 50 μM of no more than 0.5 ×10⁻⁶ cm/s. Besides, the “G12D_exchange” value in data set [3] was “†”.

Take `COc1cc(N2C[C@@H]3C[C@H](C2)N(C(=O)C2CC2)[C@H]3c2cc3c(C)nc4c(F)c(-c5cccc(Cl)c5Cl)c(CCC#N)cc4c3n2[C@H]2[C@H]3CN[C@@H]2C3)ccn1` (atropisomer, axis not shown; (Ra)) [Example 59, 3-((Ra)-1-((1R,4R,5S)-2-azabicyclo[2.1.1]hexan-5-yl)-2-((1S,5R,7R)-6-(cyclopropanecarbonyl)-3-(2-methoxypyridin-4-yl)-3,6-diazabicyclo[3.2.1]octan-7-yl)-7-(2,3-dichlorophenyl)-6-fluoro-4-methyl-1H-pyrrolo[3,2-c]quinolin-8-yl)propanenitrile]: the “G12V_exchange” value in data set [1] is on record as “†”. The compound also had a Papp A→B at 120 min, 50 μM in data set [2] of no more than 0.5 ×10⁻⁶ cm/s. In addition, the “G12D_exchange” value in data set [3] was “†”.

For the compound `Cc1nc2c(F)c(-c3cccc(Cl)c3Cl)c(CCC#N)cc2c2c1cc([C@H]1[C@H]3C[C@H](CN(c4ccnc(C(F)F)c4)C3)N1C(=O)C1CC1)n2[C@H]1[C@H]2CN[C@@H]1C2` (atropisomer, axis not shown; (Ra)) [Example 60, 3-((Ra)-1-((1R,4R,5S)-2-azabicyclo[2.1.1]hexan-5-yl)-2-((1S,5R,7R)-6-(cyclopropanecarbonyl)-3-(2-(difluoromethyl)pyridin-4-yl)-3,6-diazabicyclo[3.2.1]octan-7-yl)-7-(2,3-dichlorophenyl)-6-fluoro-4-methyl-1H-pyrrolo[3,2-c]quinolin-8-yl)propanenitrile], the “G12V_exchange” value in data set [1] is reported as “†”. In addition, in data set [2], the Papp A→B at 120 min, 50 μM is no more than 0.5 ×10⁻⁶ cm/s. In addition, in data set [3], the “G12D_exchange” value was “†”.

Regarding `Cc1nc2c(F)c(-c3cccc(Cl)c3Cl)c(CCC#N)cc2c2c1cc([C@H]1[C@H]3C[C@H](CN(c4ccn5ccnc5c4)C3)N1C(=O)C1CC1)n2[C@H]1[C@H]2CN[C@@H]1C2` (atropisomer, axis not shown; (Ra)) [Example 61, 3-((Ra)-1-((1R,4R,5S)-2-azabicyclo[2.1.1]hexan-5-yl)-2-((1S,5R,7R)-6-(cyclopropanecarbonyl)-3-(imidazo[1,2-a]pyridin-7-yl)-3,6-diazabicyclo[3.2.1]octan-7-yl)-7-(2,3-dichlorophenyl)-6-fluoro-4-methyl-1H-pyrrolo[3,2-c]quinolin-8-yl)propanenitrile], the “G12V_exchange” value in data set [1] is “†”. Also, the Papp A→B at 120 min, 50 μM in data set [2] was no more than 0.5 ×10⁻⁶ cm/s. For the same compound, the “G12D_exchange” value in data set [3] is listed as “†”.

Take `Cc1nc2c(F)c(-c3cccc(Cl)c3Cl)c(CCC#N)cc2c2c1cc([C@H]1[C@H]3C[C@H](CN(c4ccnc(C(C)(C)O)c4)C3)N1C(=O)C1CC1)n2[C@H]1[C@H]2CN[C@@H]1C2` (atropisomer, axis not shown; (Ra)) [Example 62, 3-((Ra)-1-((1R,4R,5S)-2-azabicyclo[2.1.1]hexan-5-yl)-2-((1S,5R,7R)-6-(cyclopropanecarbonyl)-3-(2-(2-hydroxypropan-2-yl)pyridin-4-yl)-3,6-diazabicyclo[3.2.1]octan-7-yl)-7-(2,3-dichlorophenyl)-6-fluoro-4-methyl-1H-pyrrolo[3,2-c]quinolin-8-yl)propanenitrile]: the “G12V_exchange” value in data set [1] is reported as “†”. This compound also came in with a Papp A→B at 120 min, 50 μM in data set [2] of no more than 0.5 ×10⁻⁶ cm/s. In addition, the “G12D_exchange” value in data set [3] was “†”.

For the compound `Cc1nc2c(F)c(-c3cccc(Cl)c3Cl)c(CCC#N)cc2c2c1cc([C@H]1[C@H]3C[C@H](CN(c4cnn(C)c(=O)c4)C3)N1C(=O)C1CC1)n2[C@H]1[C@H]2CN[C@@H]1C2` (atropisomer, axis not shown; (Ra)) [Example 65, 3-((Ra)-1-((1R,4R,5S)-2-azabicyclo[2.1.1]hexan-5-yl)-2-((1S,5R,7R)-6-(cyclopropanecarbonyl)-3-(1-methyl-6-oxo-1,6-dihydropyridazin-4-yl)-3,6-diazabicyclo[3.2.1]octan-7-yl)-7-(2,3-dichlorophenyl)-6-fluoro-4-methyl-1H-pyrrolo[3,2-c]quinolin-8-yl)propanenitrile], in data set [1], the “G12V_exchange” value is “†”. In addition, in data set [2], the apparent permeability from apical to basolateral (Papp A→B) at 120 min, 50 μM is no more than 0.5 ×10⁻⁶ cm/s. Further, the “G12D_exchange” value in data set [3] was “†”.

Turning to `CCn1ccc(N2C[C@@H]3C[C@H](C2)N(C(=O)C2CC2)[C@H]3c2cc3c(C)nc4c(F)c(-c5cccc(Cl)c5Cl)c(CCC#N)cc4c3n2[C@H]2[C@H]3CN[C@@H]2C3)cc1=O` (atropisomer, axis not shown; (Ra)) [Example 67, 3-((Ra)-1-((1R,4R,5S)-2-azabicyclo[2.1.1]hexan-5-yl)-2-((1S,5R,7R)-6-(cyclopropanecarbonyl)-3-(1-ethyl-2-oxo-1,2-dihydropyridin-4-yl)-3,6-diazabicyclo[3.2.1]octan-7-yl)-7-(2,3-dichlorophenyl)-6-fluoro-4-methyl-1H-pyrrolo[3,2-c]quinolin-8-yl)propanenitrile], the “G12V_exchange” value in data set [1] is listed as “†”. This compound displayed a Papp A→B at 120 min, 50 μM in data set [2] of no more than 0.5 ×10⁻⁶ cm/s. In addition, the “G12D_exchange” value in data set [3] was “†”.

In the case of `Cc1nc2c(F)c(-c3cccc(Cl)c3Cl)c(CCC#N)cc2c2c1cc([C@H]1[C@H]3C[C@H](CN(c4ccn(C(C)C)c(=O)c4)C3)N1C(=O)C1CC1)n2[C@H]1[C@H]2CN[C@@H]1C2` (atropisomer, axis not shown; (Ra)) [Example 68, 3-((Ra)-1-((1R,4R,5S)-2-azabicyclo[2.1.1]hexan-5-yl)-2-((1S,5R,7R)-6-(cyclopropanecarbonyl)-3-(1-isopropyl-2-oxo-1,2-dihydropyridin-4-yl)-3,6-diazabicyclo[3.2.1]octan-7-yl)-7-(2,3-dichlorophenyl)-6-fluoro-4-methyl-1H-pyrrolo[3,2-c]quinolin-8-yl)propanenitrile], the “G12V_exchange” value in data set [1] is given as “†”. The Papp A→B at 120 min, 50 μM in data set [2] is no more than 0.5 ×10⁻⁶ cm/s. In addition, in data set [3], the “G12D_exchange” value is listed as “†”.

On to `Cc1nc2c(F)c(-c3cccc(Cl)c3Cl)c(CCC#N)cc2c2c1cc([C@H]1[C@H]3C[C@H](CN(c4cc(=O)n(C)cn4)C3)N1C(=O)C1CC1)n2[C@H]1[C@H]2CN[C@@H]1C2` (atropisomer, axis not shown; (Ra)) [Example 69, 3-((Ra)-1-((1R,4R,5S)-2-azabicyclo[2.1.1]hexan-5-yl)-2-((1S,5R,7R)-6-(cyclopropanecarbonyl)-3-(1-methyl-6-oxo-1,6-dihydropyrimidin-4-yl)-3,6-diazabicyclo[3.2.1]octan-7-yl)-7-(2,3-dichlorophenyl)-6-fluoro-4-methyl-1H-pyrrolo[3,2-c]quinolin-8-yl)propanenitrile], for which the “G12V_exchange” value in data set [1] is given as “†”. The same compound came in with a Papp A→B at 120 min, 50 μM in data set [2] of no more than 0.5 ×10⁻⁶ cm/s. Further, the “G12D_exchange” value in data set [3] is given as “†”.

As for `Cc1nc2c(F)c(-c3cccc(Cl)c3Cl)c(CCC#N)cc2c2c1cc([C@H]1[C@H]3C[C@H](CN(c4ccn5cc(C(F)(F)F)nc5c4)C3)N1C(=O)C1CC1)n2[C@H]1[C@H]2CN[C@@H]1C2` (atropisomer, axis not shown; (Ra)) [Example 70, 3-((Ra)-1-((1R,4R,5S)-2-azabicyclo[2.1.1]hexan-5-yl)-2-((1S,5R,7R)-6-(cyclopropanecarbonyl)-3-(2-(trifluoromethyl)imidazo[1,2-a]pyridin-7-yl)-3,6-diazabicyclo[3.2.1]octan-7-yl)-7-(2,3-dichlorophenyl)-6-fluoro-4-methyl-1H-pyrrolo[3,2-c]quinolin-8-yl)propanenitrile], the “G12V_exchange” value in data set [1] is “†”. This compound displayed a Papp A→B at 120 min, 50 μM in data set [2] of no more than 0.5 ×10⁻⁶ cm/s. Besides, in data set [3], the “G12D_exchange” value is listed as “†”.
